Test results reported in patent publication US8258182B2, “Substituted 1,3-diphenylpropane derivatives, preparations and uses thereof” (Genfit, priority 2006, dated 2012).

Tests used:
ApoE2/E2 mice = test: Plasma lipids in dyslipidemic ApoE2/E2 mice after per os treatment; format: in vivo, mouse; conditions: 50 mpk per os, 8 days
Procedure: The dyslipidemic E2/E2 mouse's rates of total cholesterol, of triglycerides, and plasma free fatty acids are measured after 8 or 14 days of a per os treatment with the compounds according to the invention.
The hypolipidemic properties of the compounds according to the invention are evaluated in vivo by assaying plasma lipids and the analysis of the PPARs target genes expression in the liver after a treatment treating of the dyslipidemic E2/E2 mice with the compounds according to the invention.
The murine model used is the ApoE2/E2 mouse, a transgenic mouse having the human apolipoprotein E isoform E2 (Sullivan P M et al., 1998). In human, this apolipoprotein, a constituent of low and very low density lipoproteins (LDL-VLDL), is present in three isoforms E2, E3, and E4. The E2 form presents a mutation affecting the amino acid in position 158, which considerably weakens the affinity of this protein for LDL receptors. Accordingly, the VLDL clearance is nearly non-existent. An accumulation of low-density lipoproteins then occurs along with a mixed hyperlipidemia known as type III (elevated cholesterol and triglycerides).
The ApoE2/E2 transgenic mice were kept on a 12 hour/12 hour light/dark cycle at a constant temperature of 20±3° C. After a one week acclimatization period, the mice were weighed and divided into groups of 6 animals selected so as to render uniform the distribution of their body weights and plasma lipid rates, determined before the experiment. The tested compounds were suspended in carboxymethylcellulose (Sigma C4888) and administered by intra-gastric tube feeding once a day for 8 days (for compound 1) or 14 days (for compound 8) with the chosen doses. […] Taking of food and weight gain are recorded throughout the experiment. […]
Plasma lipid concentrations (total cholesterol and triglycerides) are measured by enzymatic doses (bioMérieux-Lyon-France) according to the provider's recommendations.
Plasma cholesterol and triglycerides rates are measured after 8 or 14 days of a per os treatment with the compounds according to the invention. […]

[1] = test system: PPARs target genes (PDK4, ApoCIII, ACO) in the hepatic tissue; test: Hepatic expression of PPAR target genes in E2/E2 mice (quantitative RT-PCR); format: in vivo, mouse; conditions: 50 mpk
Procedure: The effectiveness of the compounds according to the invention is also evaluated by measuring, in the hepatic tissue, the expression of genes involved in lipid and/or glucids metabolism and in energy dissipation. Each level of genes expression is normalised regarding the expression level of the reference gene 36B4's. The induction factor, i.e. the ratio between the relative signal (induced by the compound according to the invention) and the average of the relative values relating to the control group is then calculated. The higher the induction factor is, the more the compound promotes hepatic gene expression. The final result is expressed as an average of the induction values obtained with each experimental group.
The PPARα agonist properties previously measured in vitro should, in the liver, lead to an overexpression of the target genes directly under the control of the PPARα: the genes we have studied in this experiment are PDK-4 (an enzyme involved in glucid metabolism), Apo CIII (an apolipoprotein involved in lipid metabolism), and Acox1 (in mice, Acox1 corresponds to the ACO gene in humans (Acyl Co-enzymeA Oxydase, an enzyme key to the fatty acid β-oxidation mechanism)). Measuring the transcriptional activity of PPARα target genes after a treatment with compounds according to the invention does therefore allow to evaluate the hypolipidemic properties of the compounds according to the invention.
The ApoE2/E2 transgenic mice were kept on a 12 hour/12 hour light/dark cycle at a constant temperature of 20±3° C. After a one week acclimatization period, the mice were weighed and divided into groups of 6 animals selected so as to render uniform the distribution of their body weights and plasma lipid rates, determined before the experiment. The tested compounds were suspended in carboxymethylcellulose (Sigma C4888) and administered by intra-gastric tube feeding once a day for 8 days (for compound 1) or 14 days (for compound 8) with the chosen doses. The animals had free access to food and water (standard diet). Taking of food and weight gain are recorded throughout the experiment. At the end of the experiment, the animals were anesthetized after a 4 hour fast, and a blood sample was taken using (EDTA) anticoagulant, then the mice were weighed and euthanized. The plasma was separated by centrifugation at 3000 rotations/minute for 20 minutes. The samples were kept at +4° C.
Liver samples were removed, frozen in liquid nitrogen, and kept at −80° C. for later analyses.
Total RNA is extracted from liver fragments by using the NucleoSpin® 96 RNA kit (Macherey Nagel, Hoerdt, France) according to the manufacturer's instructions.
1 μg of total RNA (quantified by using the Ribogreen RNA quantification kit (Molecular Probes)) is then reverse-transcripted into complementary DNA by means of a 1 hour reaction at 37° C. in a total volume of 20 μl containing a 1× buffer (Sigma), 1.5 mM of DTT, 0.18 mM of dNTPs (Promega), 200 ng of pdN6 (Amersham), 30U of RNase inhibitor (Sigma), and 1 μl of MMLV-RT (Sigma).
The PCR quantitative experiments were carried out using the MyiQ Single-Color Real-Time PCR Detection System (Biorad, Marnes-la-Coquette, France) and were performed using the iQ SYBR Green Supermix kit according to the manufacturer's recommendations, in 96-well trays in 5 μl of a diluted reverse transcription solution at a hybridation temperature of 55° C. The specific primer pairs of the genes studied were used: • PDK4: sense primer: 5′-[…]-3′ (SEQ ID NO: 1) and antisense primer 5′-[…]-3′ (SEQ ID NO: 2)) • ApoCIII: sense primer: 5′-[…]-3′ (SEQ ID NO: 3) and antisense primer 5′-[…]-3′ (SEQ ID NO: 4). • ACO: sense primer: 5′-[…]-3′ (SEQ ID NO: 5) and antisense primer: 5′-[…]-3′ (SEQ ID NO: 6)
The quantity of fluorescencet emitted is directly proportional to the quantity of cDNA present at the beginning of the reaction and amplified during the PCR. […]

CSc1ccc(C(=O)CCc2cc(C)c(OC(C)(C)C(=O)O)c(C)c2)cc1 [Compound 1, 2-[2,6-dimethyl-4-[3-[4-(methylthio)phenyl]-3-oxo-propyl]phenoxyl]-2-methylpropanoic acid]
plasma total cholesterol rates (ApoE2/E2 mice; vs control animals (FIG. 2-1)): very significantly decreased
circulating triglycerides rates (ApoE2/E2 mice; vs control animals (FIG. 2-2)): very significantly decreased
hepatic expression of the gene coding for PDK4 ([1]; 8 days (FIG. 2-4)): significant increase
hepatic expression of the gene coding for ApoCIII ([1]; 8 days (FIG. 2-5)): reduction
hepatic expression of genes coding for ACO ([1]; 8 days (FIG. 2-6)): significant augmentation
